Measured values as given in PubChem BioAssay AID248 (DTP/NCI, 2004).
Toxic doses and inconclusive results are not listed.

Test system: L1210 leukemia ip in BDF1 mice, survival T/C
Assay: NCI In Vivo Anticancer Drug Screen. Data for tumor model L1210 Leukemia (intraperitoneal) in B6D2F1 (BDF1) mice
Conditions: endpoint: mean survival time, higher = longer survival
Summary of the method: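 Survival endpoint. Drug-treated group vs vehicle group, expressed as T divided by C. Tumor passaged by transplantation.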

[1] = dose: 50.0 mg/kg/injection, schedule: Q01DX009 (ip), vehicle: saline with Tween-80
[2] = dose: 100.0 mg/kg/injection, schedule: Q01DX009 (ip), vehicle: saline with Tween-80
[3] = dose: 100.0 mg/kg/injection, schedule: Q04DX003 (ip), vehicle: saline with Tween-80
[4] = dose: 200.0 mg/kg/injection, schedule: Q01DX009 (ip), vehicle: saline with Tween-80
[5] = dose: 200.0 mg/kg/injection, schedule: Q04DX003 (ip), vehicle: Klucel (hydroxypropylcellulose) (HPC)
[6] = dose: 200.0 mg/kg/injection, schedule: Q04DX003 (ip), vehicle: saline with Tween-80
[7] = dose: 100.0 mg/kg/injection, schedule: Q01DX009 (ip), vehicle: Klucel (hydroxypropylcellulose) (HPC)
[8] = dose: 200.0 mg/kg/injection, schedule: Q01DX009 (ip), vehicle: Klucel (hydroxypropylcellulose) (HPC)
[9] = dose: 400.0 mg/kg/injection, schedule: Q01DX009 (ip), vehicle: Klucel (hydroxypropylcellulose) (HPC)
[10] = dose: 400.0 mg/kg/injection, schedule: Q04DX003 (ip), vehicle: saline with Tween-80
[11] = dose: 400.0 mg/kg/injection, schedule: Q01DX009 (ip), vehicle: saline with Tween-80
[12] = dose: 100.0 mg/kg/injection, schedule: Q01DX001 (ip), vehicle: saline with Tween-80
[13] = dose: 200.0 mg/kg/injection, schedule: Q01DX001 (ip), vehicle: saline with Tween-80
[14] = dose: 400.0 mg/kg/injection, schedule: Q01DX001 (ip), vehicle: saline with Tween-80

S=C(Nc1ccccn1)Nc1ccccn1
T/C [1]: 96 % of control | T/C (dose: 50.0 mg/kg/injection, schedule: Q04DX003 (ip), vehicle: Klucel (hydroxypropylcellulose) (HPC)): 94 % of control | T/C (dose: 50.0 mg/kg/injection, schedule: Q04DX003 (ip), vehicle: saline with Tween-80): 96 % of control | T/C (dose: 100.0 mg/kg/injection, schedule: Q01DX001 (ip), vehicle: carboxymethylcellulose (CMC)): 95 % of control | T/C [2]: 103 % of control | T/C [3]: 101 % of control | T/C (dose: 200.0 mg/kg/injection, schedule: Q01DX001 (ip), vehicle: carboxymethylcellulose (CMC)): 95 % of control | T/C [4]: 96 % of control | T/C [5]: 87 % of control | T/C [6]: 184 % of control | T/C (dose: 400.0 mg/kg/injection, schedule: Q01DX001 (ip), vehicle: carboxymethylcellulose (CMC)): 92 % of control

Oc1ccc(Br)cc1-c1nc2cc(Cl)c(Cl)cc2nc1-c1cc(Br)ccc1O
T/C [7]: 94 % of control | T/C (dose: 100.0 mg/kg/injection, schedule: Q04DX003 (ip), vehicle: Klucel (hydroxypropylcellulose) (HPC)): 107 % of control | T/C [8]: 94 % of control | T/C [5]: 101 % of control | T/C [9]: 96 % of control | T/C (dose: 400.0 mg/kg/injection, schedule: Q04DX003 (ip), vehicle: Klucel (hydroxypropylcellulose) (HPC)): 95 % of control

CC/C(C)=C\CC/C(C)=C\COc1ccccc1[N+](=O)[O-]
T/C (dose: 100.0 mg/kg/injection, schedule: Q01DX009 (ip), vehicle: carboxymethylcellulose (CMC)): 100 % of control | T/C (dose: 200.0 mg/kg/injection, schedule: Q01DX009 (ip), vehicle: carboxymethylcellulose (CMC)): 100 % of control | T/C (dose: 400.0 mg/kg/injection, schedule: Q01DX009 (ip), vehicle: carboxymethylcellulose (CMC)): 98 % of control

CC(=O)Nc1cc(C(=O)O)cc(NC(C)=O)c1C
T/C [3]: 103 % of control | T/C [6]: 98 % of control | T/C [10]: 101 % of control

CCOC(=O)CCC(C)(C#N)c1ccccc1 (centres undefined)
T/C [2]: 104 % of control | T/C [3]: 108 % of control | T/C [4]: 98 % of control | T/C [6]: 99 % of control | T/C [11]: 97 % of control | T/C [10]: 106 % of control

O=C(c1ccccc1)C1CSC1Br (centres undefined)
T/C [3]: 102 % of control | T/C [6]: 98 % of control | T/C [10]: 100 % of control

O=C(O)C1C(c2ccccc2)C2(c3ccccc3)C(=O)C1(c1ccccc1)C(c1ccccc1)=C2c1ccccc1 (centres undefined)
T/C (dose: 25.0 mg/kg/injection, schedule: Q01DX001 (ip), vehicle: saline with Tween-80): 98 % of control | T/C (dose: 50.0 mg/kg/injection, schedule: Q01DX001 (ip), vehicle: saline with Tween-80): 88 % of control | T/C [12]: 91 % of control | T/C [13]: 90 % of control | T/C [14]: 90 % of control

Clc1nc2nsnc2nc1Cl
T/C (dose: 25.0 mg/kg/injection, schedule: Q01DX009 (ip), vehicle: saline with Tween-80): 91 % of control | T/C [1]: 110 % of control | T/C [2]: 96 % of control | T/C [4]: 104 % of control | T/C [11]: 94 % of control

NC(=S)NNC(=O)Nc1ccc(F)c(Cl)c1
T/C (dose: 12.5 mg/kg/injection, schedule: Q01DX009 (ip), vehicle: other): 94 % of control | T/C (dose: 25.0 mg/kg/injection, schedule: Q01DX009 (ip), vehicle: other): 93 % of control | T/C (dose: 50.0 mg/kg/injection, schedule: Q01DX009 (ip), vehicle: other): 96 % of control

NS(=O)(=O)c1cc(Cl)ccc1Cl
T/C [12]: 88 % of control | T/C [13]: 94 % of control | T/C [14]: 91 % of control

O=C1OCC/C1=C\OCCCO/C=C1\CCOC1=O
T/C (dose: 100.0 mg/kg/injection, schedule: Q04DX002 (ip), vehicle: Klucel (hydroxypropylcellulose) (HPC)): 100 % of control | T/C (dose: 200.0 mg/kg/injection, schedule: Q04DX002 (ip), vehicle: Klucel (hydroxypropylcellulose) (HPC)): 87 % of control | T/C (dose: 400.0 mg/kg/injection, schedule: Q04DX002 (ip), vehicle: Klucel (hydroxypropylcellulose) (HPC)): 97 % of control

Cc1ccc([N+](=O)[O-])cc1NC(=O)Nc1cc(Cl)ccc1O
T/C [7]: 93 % of control | T/C [8]: 96 % of control | T/C [9]: 95 % of control
